Results as given in US7691578B2, “Methods and compositions for treating obesity” (Dana-Farber Cancer Institute, Inc., priority 2004, dated 2010).
Entries after “also recorded” stand apart in the source; their conditions may differ. Like-named read-outs stand apart in the source and are kept apart here.

Key:
PGC-1α [1] = assay: Northern blot of PGC-1α expression in HIB1B brown fat cells; type: cell-based
Description: (§1) HIB1B brown fat cells were grown in DMEM (10% cosmic calf serum)+0.25 mg/ml penicillin/streptomycin at 37° C., 10% CO2.
(§2) In FIGS. 1A and 1B, HIB1B cells were treated with 25 μM FCCP for 0-25 hours. In FIG. 1C, HIB1B cells were treated for 5 hours with 0-200 μM FCCP. RNA was extracted using trizol and was resuspended in ddH2O. RNA was run on a 1% agarose-formaldehyde gel, and 30 ug of RNA was used per lane. 36B4 was used as the loading control.
In FIG. 5A, HIB1B cells were treated with 0-15 μM Antimycin A, a Complex III inhibitor. In FIG. 5B, cells were treated for either 5 or 10 hours with 0-50 μM Atractlyoside, an adenine nucleotide transporter (ANT) inhibitor. RNA was extracted, run on a formaldehyde gel and transferred to a nylon membrane as previously described. Membranes were blotted for PGC-1α mRNA.
In FIG. 7, HIB1B cells were treated for 5 hours with 0-50 μM Ruthenium Red (RR), an inhibitor of the mitochondrial Ca^2+ uniporter, simultaneously with either 5 μM or 25 μM FCCP as indicated in the figure. Untreated cells served as a control. RNA was extracted and analyzed as previously described. Membranes were blotted for PGC-1α. 36B4 served as the loading control.
(§3) In FIG. 11A, 10T 1/2 cells were treated with 50 μM FCCP for 16 hours; in FIG. 11B, cells were treated for 72 hours with 25 μM FCCP. RNA was extracted using trizol and gene expression was measured using real time PCR. All expression levels were adjusted to actin and then the fold induction of expression was determined using the untreated cells as the control. In FIG. 11C, 10T 1/2 cells were treated for 16 hours with 50 μM FCCP. Lactate levels were measured using a lactate kit (Trinity Biotech), cells were counted, and lactate was graphed as mg lactate per million cells. In FIG. 12, HIB1B preadipocytes were treated with 25 μM FCCP, 250 μM DNP, 750 μM DNP or 1 mM DNP. RNA was extracted and run on a 1% agarose-formaldehyde gel (30 μg of RNA per lane). The gel was transferred to a nylon membrane and was probed for PGC-1α RNA and 36B4 RNA (36B4 represents the loading control).

cytochrome c [2] = assay: Real time PCR of cytochrome c expression in 10T 1/2 fibroblasts; type: cell-based; settings: 16 hours
Description: (§4) HIB1B brown fat cells were grown in DMEM (10% cosmic calf serum)+0.25 mg/ml penicillin/streptomycin at 37° C., 10% CO2. 10T 1/2 fibroblasts were grown in DMEM+10% fetal bovine serum+0.25 mg/ml penicillin/streptomycin at 37° C., 10% CO2.
(§5) 10T 1/2 cells were treated with 50 μM FCCP, 10 μM BAPTA, a calcium chelator, or both FCCP and BAPTA for 16 hours. RNA was extracted using trizol and gene expression was measured using real time PCR. All expression levels were adjusted to actin and then the fold induction of expression was determined using the untreated cells as the control.
(§6) 10T 1/2 fibroblasts were grown in DMEM+10% fetal bovine serum+0.25 mg/ml penicillin/streptomycin at 37° C., 10% CO2. HIB1B cells were grown in DMEM+10% cosmic calf serum+0.25 mg/ml penicillin/streptomycin at 37° C., 10% CO2.
as §3, with “In FIG. 12, HIB1B preadipocytes were treated with 25 μM FCCP, 250 μM DNP, 750 μM DNP or 1 mM DNP. RNA was extracted and run on a 1% agarose-formaldehyde gel (30 μg of RNA per lane). The gel was transferred to a nylon membrane and was probed for PGC-1α RNA and 36B4 RNA (36B4 represents the loading control).” left out

PGC-1α [3] = assay: Real time PCR of PGC-1α expression in 10T 1/2 fibroblasts; type: cell-based
Description: as §4, §5, §6, §3

ATP synthase = assay: Real time PCR of ATP synthase expression in 10T 1/2 fibroblasts; type: cell-based; settings: 16 hours
Description: as §4, §5, §6
as §3, with “In FIG. 12, HIB1B preadipocytes were treated with 25 μM FCCP, 250 μM DNP, 750 μM DNP or 1 mM DNP. RNA was extracted and run on a 1% agarose-formaldehyde gel (30 μg of RNA per lane). The gel was transferred to a nylon membrane and was probed for PGC-1α RNA and 36B4 RNA (36B4 represents the loading control).” left out

PGC-1β [4] = assay: Real time PCR of PGC-1β expression in 10T 1/2 fibroblasts; type: cell-based; settings: 16 hours
Description: as §4, §5, §6
as §3, with “In FIG. 12, HIB1B preadipocytes were treated with 25 μM FCCP, 250 μM DNP, 750 μM DNP or 1 mM DNP. RNA was extracted and run on a 1% agarose-formaldehyde gel (30 μg of RNA per lane). The gel was transferred to a nylon membrane and was probed for PGC-1α RNA and 36B4 RNA (36B4 represents the loading control).” left out

COX II [5] = assay: Real time PCR of COX II expression in 10T 1/2 fibroblasts; type: cell-based; settings: 16 hours
Description: as §4, §5, §6
as §3, with “In FIG. 12, HIB1B preadipocytes were treated with 25 μM FCCP, 250 μM DNP, 750 μM DNP or 1 mM DNP. RNA was extracted and run on a 1% agarose-formaldehyde gel (30 μg of RNA per lane). The gel was transferred to a nylon membrane and was probed for PGC-1α RNA and 36B4 RNA (36B4 represents the loading control).” left out

PGC-1α [6] = settings: HIB1B cells, 8 hours
Description: as §1
In FIG. 3, cells were treated for 8 hours as indicated on the figure. RNA was extracted as previously described and quantified using real time PCR. PGC-1α mRNA levels were normalized to TBP prior to analysis.

NRF-1 [7] = settings: 10T 1/2 fibroblasts, 50 μM FCCP, 16 hours
Description: as §6, §3

10T 1/2 fibroblasts = settings: 50 μM FCCP, 16 hours
Description: as §6, §3

AMP Kinase = assay: Western blot of phosphorylated (activated) AMP Kinase in HIB1B cells; type: cell-based; settings: 24 hours
Description: as §1
(§7) In FIG. 2A, HIB1B cells were treated with 2 μM FCCP for 0-72 hours. In FIG. 2B, cells were treated with 50 μM FCCP for 0-48 hours. In FIG. 2C, cells were treated for 24 hours with either 50 μM FCCP or 500 μM AICAR, a compound that activates AMP Kinase. Protein was isolated, run on an SDS polyacrylamide gel, and transferred to a PVDF membrane, and blotted for the proteins indicated in the figures.

UCP2 = settings: Fao cells, 24 hour treatment, 2 μM and 25 μM FCCP
Description: (§8) Fao liver hepatoma cells were grown in RPMI (10% fetal bovine serum)+0.25 mg/ml penicillin/streptomycin at 37° C., 5% CO2.
(§9) In FIG. 6A, Fao liver hepatoma cells were treated with 2 μM FCCP for 0-48 hours. In FIGS. 6B and 6C, cells were treated for 24 hours with either 2 μM or 25 μM FCCP. RNA was extracted and analyzed as previously described.

PGC-1β [8] = settings: Fao cells
Description: as §8, §9

cytochrome c protein = settings: HIB1B cells, 50 μM FCCP, up to 48 hours
Description: as §1, §7

PGC-1α protein = settings: HIB1B cells, 2 μM FCCP, up to 72 hours
Description: as §1, §7

PGC-1β [9] = settings: HIB1B cells
Description: as §1, §2

[10] = in vivo; cited from earlier work
NRF-1 [11] = settings: PGC-1α knock out preadipocytes, 25 μM FCCP, 24 hours
Description: (§10) Wild type and PGC-1α knock out preadipocytes were grown in DMEM+20% fetal bovine serum+0.25 mg/ml penicillin/streptomycin at 37° C., 10% CO2.
(§11) Wild type and PGC-1α knock out preadipocytes were treated for 24 hours with or without 25 μM FCCP. RNA was extracted using trizol and gene expression was measured using real time PCR. All expression levels were adjusted to actin and then the fold induction of expression was determined using the untreated cells as the control.

cytochrome c [12] = settings: PGC-1α knock out preadipocytes, 25 μM FCCP, 24 hours
Description: as §10, §11

ERRα = settings: PGC-1α knock out preadipocytes, 25 μM FCCP, 24 hours
Description: as §10, §11

[13] = tested on: adenine nucleotide translocase (ANT); settings: PGC-1α knock out preadipocytes, 25 μM FCCP, 24 hours
Description: as §10, §11

COX II [14] = settings: PGC-1α knock out preadipocytes, 25 μM FCCP, 24 hours
Description: as §10, §11

PGC-1β [15] = settings: PGC-1α knock out preadipocytes, 25 μM FCCP, 24 hours
Description: as §10, §11

HIB1B brown fat cells = settings: 25 μM FCCP
Description: as §1
In FIG. 4, HIB1B cells were treated for either 5 or 10 hours with either 0 μM or 25 μM FCCP. ATP levels were measured using the Calbiochem ATP assay kit. For analysis, ATP levels were compared to those of untreated cells at the 5 and 10 hour time points.

animals = settings: large doses of DNP; cited from earlier work
[16] = 10T 1/2 cells, 10 μM BAPTA with 50 μM FCCP
[17] = 10T 1/2 fibroblasts, 50 μM FCCP
[18] = 5 hours, increasing doses of FCCP (0-200 μM)

Description for mice: The procedures to be used in these experiments are as follows: IP injections of the chemical uncoupling agent FCCP are performed daily (see experimental design for dose and time information). The body temperature of the mice is measured one hour after injections so as to monitor pain and distress. If the temperature rises above 42 degrees the mice are sacrificed. The following tissues are collected from euthanized mice: brown fat, skeletal muscle, and liver, which contribute the most to standard metabolic rate. In addition, heart, pancreas, large intestine, small intestine, gall bladder, spleen, brain, testes, and ovary are collected. Tissues are used to assess PGC-1 gene expression and protein levels.
The maximum dose of FCCP that is used in this experiment is 0.5 mg/kg/day. The experiment is performed in C57 BL/6J and ob/ob (C57 BL/6J background) mice ordered from Jackson Laboratories.
Mice receive one IP injection of FCCP daily. The following experiment is repeated three times for statistical significance.
Body temperature is measured one hour after injections and weight is recorded every three days. Mice are sacrificed to avoid pain if the body temperature rises above 42 degrees. After the treatments as described above the mice are sacrificed using cervical dislocation with pre-anesthesia. […]

C=C1[C@@H]2CC[C@H]3[C@]4(C)C[C@H](O[C@@H]5O[C@H](CO)[C@@H](OS(=O)(=O)O)[C@H](OS(=O)(=O)O)[C@H]5OC(=O)CC(C)C)C[C@@H](C(=O)O)[C@H]4CC[C@]3(C2)[C@H]1O [atractyloside]
PGC-1α expression (PGC-1α [1]; 5 μM atractyloside, 10 hours): increased | PGC-1α expression (PGC-1α [1]; 50 μM atractyloside, 5 hours): increased

N.N.N.N.N.N.N.N.N.N.N.N.N.N.[Cl-].[Cl-].[Cl-].[Cl-].[Cl-].[Cl-].[O-2].[O-2].[Ru+3].[Ru+3].[Ru+4] [Ruthenium Red]
effect on FCCP-mediated induction of PGC-1α expression (PGC-1α [1]; 5 hours, 0-50 μM Ruthenium Red with 5 μM or 25 μM FCCP, reduced at 5, 10 and 25 μM RR): blocked part

O=C(O)CN(CC(=O)O)c1ccccc1OCCOc1ccccc1N(CC(=O)O)CC(=O)O [BAPTA]
effect on FCCP-mediated induction of cytochrome c (cytochrome c [2]; [16]): blocked | effect on FCCP-mediated induction of PGC-1α (PGC-1α [3]; 10T 1/2 cells, 10 μM BAPTA with 50 μM FCCP, 16 hours): blocked | effect on FCCP-mediated induction of ATP synthase (ATP synthase; [16]): blocked | effect on FCCP-mediated induction of PGC-1β (PGC-1β [4]; [16]): blocked | effect on FCCP-mediated induction of COX II (COX II [5]; [16]): blocked

N#CC(C#N)=NNc1ccc(OC(F)(F)F)cc1 [FCCP, carbonylcyanide-p-trifluoromethoxyphenylhydrazone]
induction of PGC-1 expression levels, real time PCR (PGC-1α [6]; 25 μM FCCP): 5.5 fold | increase in PGC-1α expression, real time PCR (PGC-1α [6]; 25 μM and 50 μM FCCP): 5-6 fold | induction of PGC-1α levels, real time PCR (PGC-1α [6]; 50 μM FCCP): 5 fold | NRF-1 expression (NRF-1 [7]): induced | lactate levels (10T 1/2 fibroblasts): induced | cytochrome c expression (cytochrome c [2]; [17]): induced | expression of the PGC-1 coactivators and their target genes after long term treatment (PGC-1α [3]; 10T 1/2 fibroblasts, 25 uM FCCP, 72 hours): remain elevated | PGC-1α expression (PGC-1α [3]; 10T 1/2 fibroblasts, 50 μM FCCP, 16 hours): induced | AMP Kinase activation (phospho-AMP kinase) (AMP Kinase; 50 μM FCCP): activated | ATP synthase expression (ATP synthase; [17]): induced | PGC-1β expression (PGC-1β [4]; [17]): induced | UCP 2 expression levels (UCP2): increased | PGC-1β expression levels (PGC-1β [8]; 2 μM FCCP, after approximately 24 hours): increased | PGC-1β expression levels (PGC-1β [8]; 24 hour treatment, 2 μM and 25 μM FCCP): increased | PGC-1α expression levels (PGC-1α [1]; 25 μM FCCP, after 5 hours, sustained for 20 additional hours): induced | PGC-1α expression levels (PGC-1α [1]; [18]): increased | cytochrome c protein levels (cytochrome c protein): induced | PGC-1α protein expression (PGC-1α protein): induced | PGC-1β expression levels (PGC-1β [9]; 25 μM FCCP, after 10-15 hours, remained induced until 25 hours): induced | PGC-1β expression levels (PGC-1β [9]; [18]): did not increase | LD50 for FCCP relative to that of DNP [10]: about 5 times less | COX II expression (COX II [5]; [17]): induced | PGC-1α RNA and protein levels in brown fat and muscle tissue (mice; daily IP injection of FCCP): increase | body weight and adiposity (mice; safe dose of FCCP, daily IP injection): decrease | FCCP induction of NRF-1 in cells that lack PGC-1α (NRF-1 [11]): blocked | FCCP induction of cytochrome c in cells that lack PGC-1α (cytochrome c [12]): blocked | FCCP induction of ERRα in cells that lack PGC-1α (ERRα): blocked | FCCP induction of adenine nucleotide translocase (ANT) in cells that lack PGC-1α [13]: blocked | FCCP induction of COX II in cells that lack PGC-1α (COX II [14]): blocked | FCCP induction of PGC-1β in cells that lack PGC-1α (PGC-1β [15]): blocked | drop in cellular ATP levels (HIB1B brown fat cells; 5 hours, versus untreated cells): 25% | ATP levels below that of untreated cells (HIB1B brown fat cells; 10 hours): approximately 20%

O=[N+]([O-])c1ccc(O)c([N+](=O)[O-])c1 [DNP, 2,4-dinitrophenol]
toxic effect of large doses (animals): almost immediate onset of rigor mortis | PGC-1α expression (PGC-1α [1]; 5 hours, three concentrations of DNP (250 μM, 750 μM, 1 mM)): caused an increase; also recorded: induces

Antimycin A
PGC-1α expression (PGC-1α [1]; 5 μM Antimycin A): increased | PGC-1α expression levels (PGC-1α [1]; 10 μM Antimycin): increase

NC(=O)c1ncn([C@@H]2O[C@H](CO)[C@@H](O)[C@H]2O)c1N [AICAR]
AMP Kinase activation (phospho-AMP kinase) (AMP Kinase; 500 μM AICAR, positive control): activation
